Assay results: patent publication US20220347190A1, “TREATMENT COMPRISING FXR AGONISTS” (Novartis AG, priority 2019, published 2022)
“Also recorded” adds a separate entry of the source. Where two headings read alike, the source gives them in different places.

Columns and labels:
healthy volunteers = details: cited from earlier work
NASH patients [1] = details: cited from earlier work
[2] = tested on: C57BL/6J mice on HF/NASH diet; experiment: Drug treatment study in mice on HF/NASH diet (Example 1); type: in vivo
Experimental: Studies were performed in compliance with Swiss guidelines for animal experimentation. Adult male C57BLJ6J mice were housed with ad libitum access to water and food. Mice were fed a HF/NASH diet (40 kcal % fat, 2% cholesterol, 40 kcal % carbohydrate, Research Diets, D09100301 or SSniff Special Diets, supplemented with a fructose-sucrose solution (42 g/L, 55% fructose and 45% sucrose by weight) in drinking water).
Total body fat and lean mass were analyzed by a nuclear magnetic resonance (NMR) and liver fat was measured by magnetic resonance imaging (MRI). […] Dietary intervention studies: mice fed a HF/NASH diet for 8 weeks were switched to normal diet (ND and water) for 12 weeks.
Drug treatment studies: mice exposed to HF/NASH diet for 20 weeks were treatment with LJP305 (1 mg/kg), GS-0976 (10 mg/kg) or vehicle (0.5% methylcellulose, 0.5% Tween 80 in water) p.o. once daily for 12 weeks while remaining on HF/NASH diet. At the end of the studies, blood and tissue samples were collected for analyses.
Liver samples were analyzed for collagen (Quickzyme), lipids and triglycerides (Cayman). Relative gene expression was calculated by normalizing Ct values of genes of interest against 18s (liver) or Idh3b (fat, ileum). Serum TIMP-1 (R&D Systems Inc.), PIII-NP (N-terminal procollagen III propeptide) (Cusabio Biotech Co.), α-fetoprotein (R&D Systems Inc.), leptin, and adiponectin (Meso Scale Discovery) were measured.
Paraffin-embedded tissue was stained with hematoxylin/eosin (H&E) and picrosirius red. IBA1 (ionized calcium-binding adapter molecule 1)-positive crown-like structures (Abcam, ab178846), Ly6b (BioRad, MCA771), UCP-1 (Abcam, ab109839) or ZO-1 (Invitrogen, 14-9776-80) were stained (Ventana Discovery XT) followed by digital (Aperio ScanScope XT, Leica Biosystems) and automated image analysis (HALO, Indica Labs).

NASH patients [3] = details: cited from earlier work; remark: listed apart in the source
[4] = tested on: patients with biopsy-proven NASH and fibrosis stages 2-3
Description: Prespecified endpoints assessed at week 12 included overall safety and changes in alanine aminotransferase (ALT), hepatic fat fraction (HFF), gamma glutamyl transferase (GGT), and body weight.

NASH patients [5] = tested on: NASH patients
[6] = GS-0976 10 mg/kg p.o. once daily for 12 weeks, HF/NASH diet

SMILES: COc1cc(C(=O)N2CCC3(CC2)CC(=O)c2cc(-c4cncc(C(=O)O)c4)ccc2O3)cc2c1c(C)cn2C1CC1 [MK-4704]
- plasma triglycerides (healthy volunteers): Hypertriglyceridemia

SMILES: COc1ccccc1[C@H](Cn1c(=O)n(C(C)(C)C(=O)O)c(=O)c2c(C)c(-c3ncco3)sc21)OC1CCOCC1 [GS-0976, 2-[1-{(2R)-2-(2-methoxyphenyl)-2-[(oxan-4-yl)oxy]ethyl}-5-methyl-6-(1,3-oxazol-2-yl)-2,4-dioxo-1,4-dihydrothieno[2,3-d]pyrimidin-3(2H)-yl]-2-methylpropanoic acid]
- plasma triglycerides (TG) (NASH patients [1]; NASH patients): Hypertriglyceridemia; also recorded: elevated plasma triglycerides
- steatosis and MRI-PDFF in NASH subjects (NASH patients [1]; NASH subjects): improve steatosis and improvements in MRI-PDFF
- liver fat, serum TIMP-1 and liver injury (NASH patients [1]; clinical phase 2 NASH studies, 12 weeks): reductions in liver fat, serum TIMP-1, and liver injury
- elevation of circulating leptin levels vs vehicle [2, 6]: 2 fold
- increase in total fat mass vs vehicle [2, 6]: 27%
- increase in visceral and subcutaneous fat vs vehicle [2, 6]: 30%
- mean body weight above vehicle-treated mice ([2]; GS-0976 10 mg/kg p.o. once daily, end of 12-week treatment, HF/NASH diet): 7%
- liver gene expression (lipid metabolism genes) ([2]; GS-0976 10 mg/kg, liver transcriptome): induced multiple genes known to play roles in lipid metabolism
- effect on blood triglycerides and peripheral obesity ([2]; NASH mice, 12-week treatment): elevated blood triglycerides and peripheral obesity
- body weight effect (in words) ([2]; chronic treatment, HF/NASH diet, vs vehicle): significant increase in body weight
- effect of therapeutic treatment on established NASH with fibrosis ([2]; p.o. once daily for 12 weeks after 20 weeks of HF/NASH diet): resolved established NASH with fibrosis

SMILES: CC[C@H]1[C@@H](O)[C@@H]2[C@H](CC[C@]3(C)[C@@H]([C@H](C)CCC(=O)O)CC[C@@H]23)[C@@]2(C)CC[C@@H](O)C[C@@H]12 [obeticholic acid, 6α-ethyl-chenodeoxycholic acid]
- adverse effects of long term administration (NASH patients [3]): associated with pruritus and lipid abnormalities

SMILES: O=C(O)c1cc(F)c2nc(N3C4CCC3CC(OCc3c(-c5ccccc5OC(F)(F)F)noc3C3CC3)C4)sc2c1 [Tropifexor, 2-[(1R,3r,5S)-3-({5-cyclopropyl-3-[2-(trifluoromethoxy)phenyl]-1,2-oxazol-4-yl}methoxy)-8-azabicyclo[3.2.1]octan-8-yl]-4-fluoro-1,3-benzothiazole-6-carboxylic acid]
- frequency of serious adverse events ([4]; 140 μg and 200 μg vs placebo): low and comparable across groups
- low density lipoprotein-cholesterol (LDL-C) ([4]; 140 μg and 200 μg, 12 weeks): dose-related increase
- treatment discontinuation rate due to pruritus ([4]; Tropifexor 140 μg): 2%
- ALT, LS mean absolute change (SE) from baseline to Week 12 ([4]; Tropifexor 140 μg once daily): −20.1 (4.57) U/L
- Body weight, LS mean absolute change (SE) from baseline to Week 12 ([4]; Tropifexor 140 μg once daily): −2.46 (0.38) kg
- GGT, LS mean absolute change (SE) from baseline to Week 12 ([4]; Tropifexor 140 μg once daily): −39.2 (3.70) U/L
- pre-specified endpoints at week 12 ([4]; Tropifexor 200 μg): Pre-specified endpoints were met
- treatment discontinuation rate due to pruritus ([4]; Tropifexor 200 μg): 6%
- ALT, LS mean absolute change (SE) from baseline to Week 12 ([4]; Tropifexor 200 μg once daily): −23.6 (4.48) U/L
- Body weight, LS mean absolute change (SE) from baseline to Week 12 ([4]; Tropifexor 200 μg once daily): −3.20 (0.37) kg
- GGT, LS mean absolute change (SE) from baseline to Week 12 ([4]; Tropifexor 200 μg once daily): −40.9 (3.62) U/L
- share of patients with pruritus whose events were of mild (Grade 1) severity ([4]; both Tropifexor groups (140 μg and 200 μg)): > 60%
- ALT, HFF and body weight after 12 weeks (in words) ([4]; higher doses (140 μg and 200 μg)): robust and dose-dependent decreases
- efficacy based on biomarkers at Week 12 (NASH patients [5]; 60 and 90 μg): anti-inflammatory and anti-steatotic efficacy
- tolerability (NASH patients [5]; up to 90 μg daily): generally well tolerated up to 90 μg daily without safety signals
